The test system of this test is L1210 leukemia ip in BDF1 mice, survival T/C. Put plainly: NCI In Vivo Anticancer Drug Screen. Data for tumor model L1210 Leukemia (intraperitoneal) in B6D2F1 (BDF1) mice. Conditions: endpoint: mean survival time, higher = longer survival. In outline: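 In this screen, tumor-bearing mice given compound are compared to those given vehicle, and their survival values are reported as a treated-to-control quotient.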

[1] abbreviates: dose: 100.0 mg/kg/injection, schedule: Q04DX003 (ip), vehicle: Klucel (hydroxypropylcellulose) (HPC).
Where [2] appears, read: dose: 200.0 mg/kg/injection, schedule: Q04DX003 (ip), vehicle: Klucel (hydroxypropylcellulose) (HPC).
Where [3] appears, read: dose: 400.0 mg/kg/injection, schedule: Q04DX003 (ip), vehicle: Klucel (hydroxypropylcellulose) (HPC).
Setting [4] is: dose: 50.0 mg/kg/injection, schedule: Q01DX009 (ip), vehicle: Klucel (hydroxypropylcellulose) (HPC).
The mark [5] stands for this setting: dose: 100.0 mg/kg/injection, schedule: Q01DX001 (ip), vehicle: saline.
Where [6] appears, read: dose: 200.0 mg/kg/injection, schedule: Q01DX001 (ip), vehicle: saline.
Setting [7] is: dose: 400.0 mg/kg/injection, schedule: Q01DX001 (ip), vehicle: saline.
Setting [8] is: dose: 100.0 mg/kg/injection, schedule: Q04DX003 (ip), vehicle: saline with Tween-80.
The mark [9] stands for this setting: dose: 200.0 mg/kg/injection, schedule: Q04DX003 (ip), vehicle: saline with Tween-80.
Setting [10] is: dose: 400.0 mg/kg/injection, schedule: Q04DX003 (ip), vehicle: saline with Tween-80.
The mark [11] stands for this setting: dose: 100.0 mg/kg/injection, schedule: Q01DX009 (ip), vehicle: Klucel (hydroxypropylcellulose) (HPC).
Setting [12] is: dose: 200.0 mg/kg/injection, schedule: Q01DX009 (ip), vehicle: Klucel (hydroxypropylcellulose) (HPC).
Setting [13] is: dose: 400.0 mg/kg/injection, schedule: Q01DX009 (ip), vehicle: Klucel (hydroxypropylcellulose) (HPC).
Setting [14] is: dose: 100.0 mg/kg/injection, schedule: Q04DX002 (ip), vehicle: saline with Tween-80.
Setting [15] is: dose: 200.0 mg/kg/injection, schedule: Q04DX002 (ip), vehicle: saline with Tween-80.
Where [16] appears, read: dose: 400.0 mg/kg/injection, schedule: Q04DX002 (ip), vehicle: saline with Tween-80.
Setting [17] is: dose: 100.0 mg/kg/injection, schedule: Q04DX003 (ip), vehicle: saline.
The mark [18] stands for this setting: dose: 200.0 mg/kg/injection, schedule: Q04DX003 (ip), vehicle: saline.
[19] abbreviates: dose: 400.0 mg/kg/injection, schedule: Q04DX003 (ip), vehicle: saline.

Several values for one entry are separate records, joined by “and”; a condition that tells them apart may be missing. Equal values may be shown once. Inconclusive results and toxic doses are left out.

With `CS(=O)(=O)OC1CCCCC1Sc1ccc(Br)cc1` (centres undefined), the T/C reads like this: (dose: 100.0 mg/kg/injection, schedule: Q01DX001 (ip), vehicle: Klucel (hydroxypropylcellulose) (HPC)) 103 % of control; under setting [1], 101 % of control; (dose: 200.0 mg/kg/injection, schedule: Q01DX001 (ip), vehicle: Klucel (hydroxypropylcellulose) (HPC)) 101 % of control; under setting [2], 101 % of control; (dose: 400.0 mg/kg/injection, schedule: Q01DX001 (ip), vehicle: Klucel (hydroxypropylcellulose) (HPC)) 101 % of control; under setting [3], 106 % of control.
Turning to `CC(=O)OC1=NC(C)c2c1cc(OC(C)=O)[nH]c2=O` (centres undefined), the T/C by setting is: under setting [4], 102 % of control; under setting [1], 108 % of control; under setting [2], 115 % of control.
For `NC(=O)C(CCC(=O)O)NC(=O)OCc1ccccc1` (centres undefined), the T/C is 100 % of control (dose: 25.0 mg/kg/injection, schedule: Q04DX002 (ip), vehicle: Klucel (hydroxypropylcellulose) (HPC)); 92 % of control (dose: 50.0 mg/kg/injection, schedule: Q04DX002 (ip), vehicle: Klucel (hydroxypropylcellulose) (HPC)); 100 % of control (dose: 100.0 mg/kg/injection, schedule: Q04DX002 (ip), vehicle: Klucel (hydroxypropylcellulose) (HPC)).
`CN1CCN(C)P1N1CCCC1`: the T/C reads like this: under setting [5], 89 % of control; under setting [6], 95 % of control; under setting [7], 93 % of control.
With `CC(=O)Oc1cc([N+](=O)[O-])ccc1C(=O)O`, the T/C under setting [8] is 96 % of control, the T/C under setting [9] was 91 % of control and the T/C under setting [10] was 94 % of control.
Take `O=C(O)c1cccc([N+](=O)[O-])c1Br`: the T/C under setting [11] is 94 % of control, the T/C under setting [12] is 100 % of control and the T/C under setting [13] is 91 % of control.
`COC(=O)c1cn[nH]c1C(=O)OC`: the T/C was 100 % of control under setting [5], 100 % of control under setting [6] and 96 % of control under setting [7].
As for `COc1ccc(C(=Nc2ccccc2)C(=Nc2ccccc2)c2ccc(OC)cc2)cc1`, the T/C is, setting by setting: under setting [8], 88 % of control; under setting [9], 89 % of control; under setting [10], 91 % of control.
Consider `CCCCCCC(C)O[Si](C)c1ccc(-c2ccccc2)cc1` (centres undefined), for which the T/C was 100 % of control (dose: 100.0 mg/kg/injection, schedule: Q01DX009 (ip), vehicle: saline with Tween-80); 93 % of control under setting [8]; 105 % of control (dose: 200.0 mg/kg/injection, schedule: Q01DX009 (ip), vehicle: saline with Tween-80); 94 % of control under setting [9]; 102 % of control (dose: 400.0 mg/kg/injection, schedule: Q01DX009 (ip), vehicle: saline with Tween-80); 100 % of control under setting [10].
With `c1ccc([CH2][Sn]([c]2ccccc2)([c]2ccccc2)[c]2ccccc2)cc1`, the T/C under setting [4] is 100 % of control; the T/C under setting [11] was 104 % of control; the T/C under setting [1] was 101 % of control; the T/C under setting [12] was 98 % of control; the T/C under setting [2] is 98 % of control; the T/C under setting [3] was 101 % of control.
For the molecule `O=C(O)CC1CC2CCC1C2` (centres undefined), the T/C by setting is: under setting [14], 87 % of control; under setting [15], 97 % of control; under setting [16], 87 % of control.
On to `O=C(COc1ccc(Cl)cc1)NC(CO)(CO)CO`, for which the T/C is, setting by setting: under setting [14], 103 % of control; under setting [15], 103 % of control; under setting [16], 103 % of control.
Take `O=C(NCCCOc1ccc([N+](=O)[O-])cc1Cl)Nc1ccc(S(=O)(=O)F)cc1`: the T/C by setting is: (dose: 75.0 mg/kg/injection, schedule: Q01DX001 (ip), vehicle: carboxymethylcellulose (CMC)) 98 % of control; under setting [17], 103 % of control; (dose: 150.0 mg/kg/injection, schedule: Q01DX001 (ip), vehicle: carboxymethylcellulose (CMC)) 89 % of control; under setting [18], 103 % of control; (dose: 300.0 mg/kg/injection, schedule: Q01DX001 (ip), vehicle: carboxymethylcellulose (CMC)) 87 % of control; under setting [19], 105 % of control.
With `Nc1nnc(Sc2n[nH]c(=O)[nH]c2=O)s1`, the T/C was 98 % of control (dose: 100.0 mg/kg/injection, schedule: Q01DX001 (ip), vehicle: carboxymethylcellulose (CMC)); 102 % of control (dose: 200.0 mg/kg/injection, schedule: Q01DX001 (ip), vehicle: carboxymethylcellulose (CMC)); 105 % of control (dose: 400.0 mg/kg/injection, schedule: Q01DX001 (ip), vehicle: carboxymethylcellulose (CMC)).
`COC(=O)CNC(=O)C(C)NC(=O)OCc1ccccc1` (centres undefined): the T/C by setting is: under setting [8], 102 % of control; under setting [9], 98 % of control; under setting [10], 100 % of control.
Turning to `O=C1NC2(C=CC(Br)CC2)C(=O)C12CCCCC2` (centres undefined), the T/C runs as follows: (dose: 75.0 mg/kg/injection, schedule: Q01DX001 (ip), vehicle: saline) 104 % of control; (dose: 150.0 mg/kg/injection, schedule: Q01DX001 (ip), vehicle: saline) 100 % of control; (dose: 300.0 mg/kg/injection, schedule: Q01DX001 (ip), vehicle: saline) 102 % of control.
For the molecule `O=C(O)c1nc[nH]c1C(=O)O`, the T/C reads like this: (dose: 100.0 mg/kg/injection, schedule: Q01DX009 (ip), vehicle: saline) 102 % of control; under setting [1], 93 % of control; (dose: 200.0 mg/kg/injection, schedule: Q01DX009 (ip), vehicle: saline) 104 % of control; under setting [2], 96 % of control; (dose: 400.0 mg/kg/injection, schedule: Q01DX009 (ip), vehicle: saline) 94 % of control; under setting [3], 88 % of control.
As to `C=C(Br)CNCCCCCC`, the T/C is, setting by setting: (dose: 12.5 mg/kg/injection, schedule: Q01DX009 (ip), vehicle: Klucel (hydroxypropylcellulose) (HPC)) 94 % of control; (dose: 25.0 mg/kg/injection, schedule: Q01DX009 (ip), vehicle: Klucel (hydroxypropylcellulose) (HPC)) 111 % of control.
For the molecule `O=C(O)C1C(c2ccccc2)=C(c2ccccc2)c2ccccc21` (centres undefined), the T/C is, setting by setting: (dose: 25.0 mg/kg/injection, schedule: Q04DX003 (ip), vehicle: saline with Tween-80) 92 % of control; (dose: 50.0 mg/kg/injection, schedule: Q04DX003 (ip), vehicle: saline with Tween-80) 100 % of control; under setting [8], 95 % of control and 103 % of control.
Take `O=C(O)CCc1c[nH]c2ccc(N(CCCl)CCCl)cc12`: the T/C reads like this: (dose: 0.7 mg/kg/injection, schedule: Q01DX Z (ip), vehicle: carboxymethylcellulose (CMC)) 114 % of control; (dose: 1.5 mg/kg/injection, schedule: Q01DX Z (ip), vehicle: carboxymethylcellulose (CMC)) 116 % of control; (dose: 1.87 mg/kg/injection, schedule: Q01DX001 (ip), vehicle: carboxymethylcellulose (CMC)) 121 % of control; (dose: 3.75 mg/kg/injection, schedule: Q01DX001 (oral), vehicle: carboxymethylcellulose (CMC)) 119 % of control; (dose: 7.5 mg/kg/injection, schedule: Q01DX001 (ip), vehicle: carboxymethylcellulose (CMC)) 173 % of control; (dose: 15.0 mg/kg/injection, schedule: Q01DX001 (oral), vehicle: carboxymethylcellulose (CMC)) 103 % of control.
`NCCCCNc1ncnc2c1ncn2C1OC(CO)C(O)C1O` (centres undefined): the T/C was 104 % of control (dose: 100.0 mg/kg/injection, schedule: Q01DX005 (ip), vehicle: saline) and 116 % of control (dose: 200.0 mg/kg/injection, schedule: Q01DX005 (ip), vehicle: saline).
Consider `CCCCCCCCCCCCCCCCCCNC(=O)N(CC)c1ccccc1`, for which the T/C by setting is: under setting [11], 101 % of control; under setting [1], 93 % of control; under setting [12], 98 % of control; under setting [2], 101 % of control; under setting [13], 106 % of control; under setting [3], 92 % of control.
`CC(=O)NC1CC2c3ccccc3C1([N+](=O)[O-])c1ccccc12` (centres undefined): the T/C under setting [11] was 107 % of control; the T/C under setting [1] was 107 % of control; the T/C under setting [17] was 107 % of control; the T/C under setting [12] is 101 % of control; the T/C under setting [2] is 105 % of control; the T/C under setting [18] was 105 % of control. The T/C under setting [13] is 97 % of control, the T/C under setting [3] is 97 % of control and the T/C under setting [19] was 97 % of control.

Source of the values: PubChem BioAssay AID248 (DTP/NCI, 2004).
